Tests used:
Staphylococcus aureus = test: Antibacterial activity against Staphylococcus aureus CCM 2551 at 50 ug/disk; format: functional; design: unit not given here; settings: read-out: Diameter of inhibition zone
Saccharomyces cerevisiae = test: Antifungal activity against Saccharomyces cerevisiae at 50 ug/disk; format: functional
Escherichia coli = test: Antibacterial activity against Escherichia coli at 50 ug/disk; format: functional
Artemia salina = test: Toxicity to Artemia salina assessed as mortality after 24 hrs; format: organism-based; settings: in vivo
Bacillus subtilis = test: Antibacterial activity against Bacillus subtilis CCM 2216 at 50 ug/disk; format: functional; design: unit not given here
[1] = read-out: Diameter of inhibition zone

| SMILES | zone of inhibition at 50 µg/disc (Staphylococcus aureus) | zone of inhibition at 50 µg/disc (Saccharomyces cerevisiae; [1]) [mm] | zone of inhibition at 50 µg/disc (Escherichia coli; [1]) [mm] | MLD (Artemia salina) [µg/mL] | zone of inhibition at 50 µg/disc (Bacillus subtilis; [1]) | zone of inhibition at 50 µg/disc (Saccharomyces cerevisiae; read-out: IZ) [mm] | zone of inhibition at 50 µg/disc (Escherichia coli; read-out: IZ) [mm] | zone of inhibition at 50 µg/disc (Bacillus subtilis; read-out: IZ) |
| --- | --- | --- | --- | --- | --- | --- | --- | --- |
| CC[C@H](C)/C=C/C(C)=C/C[C@H](C)/C=C/C=C/C(=O)OC | 49 | 0 | 0 | 10.2 | – | – | – | – |
| CCCCCCCCCC[C@H](C)/C=C(C)/C=C/C(=O)OC | 56.7 | 0 | 0 | 4.9 | 81 | – | – | – |
| CC[C@@H](C)CC/C=C/C(C)=C/[C@H](C)C/C=C/C=C/C(=O)OC | – | – | – | 5 | – | 0 | 0 | 78.1 |
| C=C(CC/C=C/C=C/CC(C)C)C[C@@H](C)C/C(C)=C/C(=O)OC | 84.1 | 0 | 0 | 1.7 | 74.9 | – | – | – |
| C=C/C(C)=C/C[C@H](C)/C=C(C)/C=C(C)\C=C\C=C\C(=O)OC | 62.4 | 0 | 0 | 1.1 | 89 | – | – | – |

— ChEMBL document CHEMBL1148137, “Multibranched polyunsaturated and very-long-chain fatty acids of freshwater Israeli sponges” (J Nat Prod, 2002)
